Test results from ChEMBL document CHEMBL1201862, “PubChem BioAssay data set” (2004).
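Five compound concentrations were applied to cells in 96-well plates for 48 hours; endpoints were derived by simple linear interpolation of the resulting dose-response curve. Here, GI50 denotes the concentration required for 50% inhibition of growth.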 Activity calls are given as the source filed them. Rule as the data show it: active = GI50 up to about 1.1 µM and inactive = higher. Where a SMILES comes first, the peptide text is derived from it. [ ]: non-standard residue; d: D form. The star is where a group is joined. ξ: configuration not given here. X4 = COc1ccc(C(N*)c2ccc(OC)cc2)cc1; NMeF = CN[C@@H](Cc1ccccc1)C(=O)O; NMeD = CN[C@@H](CC(=O)O)C(=O)O; NMeV = CN[C@H](C(=O)O)C(C)C; ξNMeV = CNC(C(=O)O)C(C)C; Boc = CC(C)(C)OC(=O)*; ξNMeA = CNC(C)C(=O)O; ξV = CC(C)C(N)C(=O)O

Legend:
Assay in all cases: inhibition of tumour cell growth, NCI panel, 48 h
SNB-75 = tested on: SNB-75
RXF 393 = tested on: RXF 393
HL-60 = tested on: HL-60
K562 = tested on: K562
MDA-N = tested on: MDA-N
SN12C = tested on: SN12C
SK-MEL-28 = tested on: SK-MEL-28
HCT-15 = tested on: HCT-15
EKVX = tested on: EKVX
BT-549 = tested on: BT-549
DLD-1 = tested on: DLD-1
UACC-257 = tested on: UACC-257
MOLT-4 = tested on: MOLT-4
T47D = tested on: T47D
RPMI-8226 = tested on: RPMI-8226
IGROV-1 = tested on: IGROV-1
OVCAR-8 = tested on: OVCAR-8
ACHN = tested on: ACHN
CAKI-1 = tested on: CAKI-1
OVCAR-3 = tested on: OVCAR-3

Structure (SMILES) | GI50 (SNB-75) | GI50 (RXF 393) | GI50 (HL-60) | GI50 (K562) | GI50 (MDA-N) | GI50 (SN12C) | GI50 (SK-MEL-28) | GI50 (HCT-15) | GI50 (EKVX) | GI50 (BT-549) | GI50 (DLD-1) | GI50 (UACC-257) | GI50 (MOLT-4) | GI50 (T47D) | GI50 (RPMI-8226) | GI50 (IGROV-1) | GI50 (OVCAR-8) | GI50 (ACHN) | GI50 (CAKI-1) | GI50 (OVCAR-3)
Cc1c(CNc2ccc(C(=O)NC(CC(=O)O)C(=O)O)cc2)ccc2nc(N)nc(N)c12 (stereo unspecified) | 32.5 µM (inactive) | 5.04 µM (inactive) | < 0.01 µM (active) | 0.0101 µM (active) | < 0.01 µM (active) | 0.0499 µM (active) | 1.7 µM (inactive) | < 0.01 µM | > 100 µM (inactive) | > 100 µM (inactive) | < 0.01 µM (active) | 0.605 µM (active) | < 0.0157 µM (active) | > 100 µM (inactive) | < 0.0182 µM (active) | < 0.01 µM (active) | < 0.01 µM (active) | < 0.01 µM (active) | – | –
COc1ccc(C(NC(=O)C[C@@H](C(=O)N(C)C(C)C(=O)O)N(C)C(=O)[C@@H]2CCCN2C(=O)[C@H](C(C)C)N(C)C(=O)C(C(C)C)N(C)C(=O)[C@H](Cc2ccccc2)N(C)C(=O)C(NC(=O)OC(C)(C)C)C(C)C)c2ccc(OC)cc2)cc1 (stereo partly specified) (Boc-[ξV][NMeF][ξNMeV][NMeV]P[NMeD](X4)[ξNMeA]-OH) | 4.24 µM (inactive) | 7.5 µM (inactive) | 8 µM (inactive) | 11 µM (inactive) | 12.5 µM (inactive) | 25.5 µM (inactive) | 7.62 µM (inactive) | 21.9 µM | 25.6 µM (inactive) | 6.73 µM (inactive) | 18 µM (inactive) | 9.75 µM (inactive) | 8.39 µM (inactive) | 11.9 µM (inactive) | 8.24 µM (inactive) | 8.43 µM (inactive) | 22.1 µM (inactive) | 36.9 µM (inactive) | 29.6 µM (inactive) | 13.3 µM (inactive)
Cc1nc(-c2nc(C)c(C(=O)/C=C/c3ccc([N+](=O)[O-])cc3)s2)sc1C(=O)/C=C/c1ccc([N+](=O)[O-])cc1 | > 100 µM (inactive) | > 100 µM (inactive) | > 100 µM (inactive) | > 100 µM (inactive) | – | > 100 µM (inactive) | > 100 µM (inactive) | > 100 µM | > 100 µM (inactive) | – | > 100 µM (inactive) | > 100 µM (inactive) | > 100 µM (inactive) | – | > 100 µM (inactive) | > 100 µM (inactive) | > 100 µM (inactive) | > 100 µM (inactive) | > 100 µM (inactive) | > 100 µM (inactive)
CC1=NN(C(=O)c2ccccc2O)C(=O)/C1=C/c1ccc([N+](=O)[O-])cc1 | 0.248 µM (active) | < 0.01 µM (active) | 0.508 µM (active) | 0.0434 µM (active) | 0.413 µM (active) | 0.372 µM (active) | 31.6 µM (inactive) | 0.361 µM | 1.2 µM (inactive) | 0.328 µM (active) | 0.0643 µM (active) | 1.91 µM (inactive) | – | 1.89 µM (inactive) | 1.88 µM (inactive) | 0.0635 µM (active) | 0.203 µM (active) | 0.106 µM (active) | 0.455 µM (active) | 0.172 µM (active)
COC(=O)c1c(CC(=O)OC(C)C)cc2n(c1=O)Cc1c-2nc2ccccc2c1OC | 27 µM (inactive) | 26.4 µM (inactive) | > 100 µM (inactive) | > 100 µM (inactive) | – | > 100 µM (inactive) | > 100 µM (inactive) | > 100 µM | > 100 µM (inactive) | – | > 100 µM (inactive) | > 100 µM (inactive) | > 100 µM (inactive) | – | 59 µM (inactive) | 83.9 µM (inactive) | > 100 µM (inactive) | > 100 µM (inactive) | > 100 µM (inactive) | > 100 µM (inactive)
CC(C)(C)c1nc2c(o1)/C(=N\c1ccc(F)cc1)c1ccccc1C2=O | 6.79 µM (inactive) | 9.79 µM (inactive) | > 28.6 µM (inactive) | 4.1 µM (inactive) | 2.37 µM (inactive) | 5.69 µM (inactive) | 10.9 µM (inactive) | 5.19 µM | 23.7 µM (inactive) | 3.45 µM (inactive) | 4.11 µM (inactive) | 2.36 µM (inactive) | > 100 µM (inactive) | > 49.3 µM (inactive) | 26.9 µM (inactive) | 14.9 µM (inactive) | 7.21 µM (inactive) | 4.85 µM (inactive) | 50.9 µM (inactive) | 1.06 µM (active)
O=C(CCCCCCCCCCc1ccccc1)c1c(O)cccc1O | 29 µM (inactive) | 19.4 µM (inactive) | 25.1 µM (inactive) | 21.4 µM (inactive) | – | 18.7 µM (inactive) | 20 µM (inactive) | 20 µM | 21.3 µM (inactive) | – | 21.3 µM (inactive) | 20.2 µM (inactive) | 23.7 µM (inactive) | – | 34.7 µM (inactive) | 26.5 µM (inactive) | 20.7 µM (inactive) | 28.1 µM (inactive) | 29.5 µM (inactive) | 27 µM (inactive)
CCO/C(CCn1[nH]c(=O)c(Cl)c(Cl)c1=O)=N\NC(=O)C(=O)NN | > 100 µM (inactive) | > 100 µM (inactive) | > 100 µM (inactive) | > 100 µM (inactive) | – | > 100 µM (inactive) | > 100 µM (inactive) | > 100 µM | > 100 µM (inactive) | – | > 100 µM (inactive) | > 100 µM (inactive) | > 100 µM (inactive) | – | > 100 µM (inactive) | > 100 µM (inactive) | > 100 µM (inactive) | > 100 µM (inactive) | > 100 µM (inactive) | > 100 µM (inactive)
COc1ccc(C2[C@H]3C(=O)N(c4ccc(Cc5ccc(N6C(=O)[C@@H]7ON(c8ccccc8)C(c8ccc(OC)cc8)[C@@H]7C6=O)cc5)cc4)C(=O)[C@H]3ON2c2ccccc2)cc1 (stereo partly specified) | > 100 µM (inactive) | > 100 µM (inactive) | > 100 µM (inactive) | > 100 µM (inactive) | – | > 100 µM (inactive) | > 100 µM (inactive) | > 100 µM | > 100 µM (inactive) | – | > 100 µM (inactive) | > 100 µM (inactive) | > 100 µM (inactive) | – | > 100 µM (inactive) | > 100 µM (inactive) | > 100 µM (inactive) | > 100 µM (inactive) | > 100 µM (inactive) | > 100 µM (inactive)
C/C(=C1/N=C(c2cc([N+](=O)[O-])ccc2Cl)N(c2cccc(C)c2)C1=O)c1cc2ccccc2oc1=O | > 100 µM (inactive) | 59.6 µM (inactive) | 28.7 µM (inactive) | 33.7 µM (inactive) | – | > 100 µM (inactive) | > 100 µM (inactive) | 36.7 µM | > 100 µM (inactive) | – | 31.7 µM (inactive) | 17.3 µM (inactive) | 21.3 µM (inactive) | – | 20.4 µM (inactive) | 45.1 µM (inactive) | > 100 µM (inactive) | 48.8 µM (inactive) | > 100 µM (inactive) | 28.3 µM (inactive)
COc1ccccc1NC(=O)C1=C(C)NC(C)=C(C(=O)Nc2ccccc2OC)C1c1cccc2ccccc12 | 14.3 µM (inactive) | 21.2 µM (inactive) | 29.9 µM (inactive) | 13.3 µM (inactive) | – | > 100 µM (inactive) | 62.7 µM (inactive) | 28.4 µM | > 100 µM (inactive) | – | 38.7 µM (inactive) | > 100 µM (inactive) | 10.6 µM (inactive) | – | 9.29 µM (inactive) | > 100 µM (inactive) | > 100 µM (inactive) | 11.7 µM (inactive) | 68.1 µM (inactive) | 64 µM (inactive)
